Experimental data reported in patent publication US20150313891A1, “NEURONAL NICOTINIC AGONISTS AND METHODS OF USE” (AbbVie Inc., priority 2014, published 2015).

Assays:
[1] = tested on: MPTP-lesioned monkeys; assay: L-dopa-induced dyskinesias (LIDs) ratings in MPTP-lesioned monkeys; assay type: in vivo, squirrel monkeys (Saimiri sciureus)
Text: The objective of the current study was to test the effect of the α7 nAChR agonist ABT-126 for its ability to reduce L-dopa-induced dyskinesias (LIDs) in MPTP-lesioned monkeys. […] All monkeys were orally gavaged with L-dopa/carbidopa twice daily, which led to the development of stable abnormal involuntary movements or dyskinesias. […] These latter two sets of monkeys had previously been given ABT-894 and ABT-107 but using somewhat different treatment regimens. The present study was done after a 7 wk washout period, when LIDs were similar in all groups. ABT-126 was administered orally in a small cracker 30 min before L-dopa (10 mg/kg) and carbidopa (2.5 mg/kg). […] ABT-126 was tested at 0.03, 0.10, 0.30 and 1.0 mg/kg, with each dose of ABT-126 tested for 1 or 2 wk. […] ABT-126 at 0.10 mg/kg reduced LIDs by ˜40%, while the 0.30 and 1.0 mg/kg ABT-126 doses decreased LIDs up to 60%. We also tested the effect of ABT-126 (1.0 mg/kg) for its ability to reduce LIDs at a higher dose of L-dopa (15 mg/kg)/carbidopa (3.75 mg/kg). The higher dose of L-dopa led to greater LID scores in vehicle treated monkeys. […] The effect of ABT-126 was most pronounced during the latter weeks, possibly because of a greater decline with continued drug treatment. A washout is in progress to determine if LIDs return to vehicle-treated levels after ABT-126 discontinuation. There was no effect of the drug on parkinsonism or cognitive ability. Adult male and female squirrel monkeys (Saimiri sciureus) (n=21) weighing 0.6-1.2 kg were obtained from World Wide Primates (Miami, Fla.). The monkeys were quarantined for one month, as mandated by California state regulations. All studies were performed according to the NIH Guide for the Care and Use of Laboratory Animals, and were approved by the Institutional Animal Care and Use Committee at SRI. Animals were housed separately in a room maintained at 27±3° C., with a 12:12-h light/dark cycle. Monkey chow, fruits, and vegetables were provided over the course of the day, with water freely available. After quarantine, all monkeys were trained to perform various motor and other tasks for future assessment of parkinsonism and other behaviors (Quik et al. 2013b, Zhang et al. 2013, Quik et al. 2007, Quik et al. 2013a). They were then injected with saline (n=5) or 2.0 mg/kg 1-methyl-4-phenyl-1,2,3,6-tetrahydropyridine sc (MPTP; Sigma-Aldrich, St. Louis, Mo.) dissolved in saline (n=21), as described (Quik et al. 2013b, Zhang et al. 2013, Quik et al. 2007, Quik et al. 2013a). […] These include spatial hypokinesia (use of available cage space), body bradykinesia (slowness in body movement), manual dexterity in both left and right hands, balance (ability to hold on to the cage bars), freezing, and action tremor as described (Quik et al. 2013b, Zhang et al. 2013, Quik et al. 2007, Quik et al. 2013a). MPTP injections were repeated (1.5-1.9 mg/kg sc per time) if the monkeys were not parkinsonian and to maintain parkinsonism. Parkinsonism was rated once weekly on Monday. The monkeys were next orally gavaged with L-dopa (10 mg/kg) plus carbidopa (2.5 mg/kg), twice daily 4.5 h apart 5 d per wk, as described (Quik et al. 2013b, Zhang et al. 2013, Quik et al. 2007, Quik et al. 2013a). While treated with L-dopa, monkeys were given only fruits and vegetables in the morning to enhance L-dopa absorption. Monkey chow, as well as more fruits and vegetables, were given several hours after the second dose of L-dopa. The monkeys were taped from 8:00 to 8:30 AM, before the first dose of L-dopa to evaluate baseline movements and then from 8:30 to 12:30 PM, following the morning L-dopa dose, to evaluate dyskinesias. LIDs were rated from the video recordings for a 1 min period every 30 min. […]

[2] = tested on: subjects with schizophrenia; assay: Tolerability in subjects with schizophrenia; assay type: in vivo, human; settings: doses up to 25 mg QD, including 10 mg QD and 25 mg QD
[3] = tested on: MPTP-lesioned monkeys; assay: Parkinsonian ratings in MPTP-lesioned monkeys; assay type: in vivo, squirrel monkeys (Saimiri sciureus); settings: for Parkinsonian scores Before L-dopa: 45 min before L-dopa; for Parkinsonian scores Before L-dopa / Parkinsonian scores After L-dopa: mean ± SEM, 5 monkeys; for Parkinsonian scores After L-dopa: 90 min after L-dopa (10 mg/kg)/carbidopa (2.5 mg/kg)
Text: After quarantine, all monkeys were trained to perform various motor and other tasks for future assessment of parkinsonism and other behaviors (Quik et al. 2013b, Zhang et al. 2013, Quik et al. 2007, Quik et al. 2013a). […] Sigma-Aldrich, St. Louis, Mo.) dissolved in saline (n=21), as described (Quik et al. 2013b, Zhang et al. 2013, Quik et al. 2007, Quik et al. 2013a). […] These include spatial hypokinesia (use of available cage space), body bradykinesia (slowness in body movement), manual dexterity in both left and right hands, balance (ability to hold on to the cage bars), freezing, and action tremor as described (Quik et al. 2013b, Zhang et al. 2013, Quik et al. 2007, Quik et al. 2013a). MPTP injections were repeated (1.5-1.9 mg/kg sc per time) if the monkeys were not parkinsonian and to maintain parkinsonism. Parkinsonism was rated once weekly on Monday. […] These latter two sets of monkeys had previously been given ABT-894 and ABT-107 but using somewhat different treatment regimens. The present study was done after a 7 wk washout period, at which point LIDs were similar in all groups. […] It was provided in the drinking water starting at 50 μg/ml for 2 days, increased to 150 μg/ml for another two days and then maintained at 300 μg/ml. ABT-126 was tested at 0.03, 0.10, 0.30 and 1.0 mg/kg, with each dose of ABT-126 tested for 1 or 2 wk. Statistical analyses were done using GraphPad Prism. One- or two-way ANOVA was used for multiple group comparisons followed by a Newman-Keuls or Bonferroni post hoc test. Differences in rating scores between groups were analyzed using nonparametric tests (Mann-Whitney test). Data for rating scores was provided as the median (nonparametric) or mean±SEM (parametric). A value of P ≦0.05 is considered statistically significant. Values expressed are the mean±SEM of the indicated number of monkeys.

[4] = tested on: MPTP-lesioned monkeys; assay: Cognitive testing, object retrieval task; assay type: in vivo, squirrel monkeys (Saimiri sciureus); settings: for Attempts / Latency: 90 min after first L-dopa gavage, mean ± SEM, 5 monkeys
Text: To evaluate cognitive performance, an object retrieval task was used that measures a component of prefrontal cortex dependent cognitive control involving inhibition of an initial learned response after subsequent spatial reversals (Lyons et al. 2000, Lyons et al. 2004, Zhang et al. 2013). The apparatus used consists of a clear Plexiglas box (8×8×8 cm) with one open side, containing a small piece of marshmallow (Lyons et al. 2000, Lyons et al. 2004). The box is locked into place on a metallic platform hooked onto the front of the monkey cage. Control and MPTP-lesioned monkeys were scored for the average time and number of trials required to retrieve the marshmallow in 30 sec. The effect of ABT-126 administration was tested once weekly on Friday. […] These latter two sets of monkeys had previously been given ABT-894 and ABT-107 but using somewhat different treatment regimens. The present study was done after a 7 wk washout period, at which point LIDs were similar in all groups. ABT-126 was administered orally in a small cracker 30 min before L-dopa/carbidopa twice daily. […] It was provided in the drinking water starting at 50 μg/ml for 2 days, increased to 150 μg/ml for another two days and then maintained at 300 μg/ml. ABT-126 was tested at 0.03, 0.10, 0.30 and 1.0 mg/kg, with each dose of ABT-126 tested for 1 or 2 wk. Statistical analyses were done using GraphPad Prism. One- or two-way ANOVA was used for multiple group comparisons followed by a Newman-Keuls or Bonferroni post hoc test. Differences in rating scores between groups were analyzed using nonparametric tests (Mann-Whitney test). Data for rating scores was provided as the median (nonparametric) or mean±SEM (parametric). A value of P ≦0.05 is considered statistically significant. Values expressed are the mean±SEM of the indicated number of monkeys.

[5] = tested on: AD; assay: Phase 2a study, symptomatic treatment of AD; assay type: in vivo, human
[6] = ABT-126 1.0 mg/kg orally, higher L-dopa (15 mg/kg)/carbidopa (3.75 mg/kg), wk 6
[7] = 0.03 mg/kg ABT-126 orally, set 1
[8] = 0.03 mg/kg ABT-126 orally, set 2
[9] = ABT-126 orally, MPTP-lesioned L-dopa-treated monkeys
[10] = 0.3 mg/kg ABT-126 orally, set 1
[11] = 0.3 mg/kg ABT-126 orally, set 2
[12] = 300 μg/ml nicotine in the drinking water

c1ccc(-c2nnc(O[C@@H]3C4CC5C[C@H]3C[N@](C5)C4)s2)cc1 [ABT-126, (4s)-4-(5-phenyl-1,3,4-thiadiazol-2-yloxy)-1-azatricyclo[3.3.1.1^3,7]decane]
effect on LIDs ([1]; ABT-126 0.03 mg/kg orally 30 min before L-dopa (10 mg/kg)/carbidopa (2.5 mg/kg)): no significant effect
reduction of LIDs ([1]; ABT-126 0.10 mg/kg orally 30 min before L-dopa (10 mg/kg)/carbidopa (2.5 mg/kg)): ~40%
hourly time course of LIDs, FIG. 2 ([1]; ABT-126 0.3 mg/kg): maximal decline
decrease of LIDs ([1]; ABT-126 0.30 mg/kg orally 30 min before L-dopa (10 mg/kg)/carbidopa (2.5 mg/kg)): up to 60%
decrease of LIDs ([1]; ABT-126 1.0 mg/kg orally 30 min before L-dopa (10 mg/kg)/carbidopa (2.5 mg/kg)): up to 60%
reduction of LIDs after the afternoon dose of L-dopa [1, 6]: 60%
reduction of LIDs after the morning dose of L-dopa [1, 6]: 70%
decrease of LIDs, total dyskinesia scores (% vehicle), FIG. 1 ([1]; increasing doses of ABT-126 (0.03 to 1.0 mg/kg), each for a wk, L-dopa 10 mg/kg plus carbidopa 2.5 mg/kg): ≤ 70%
tolerability [2]: well tolerated
Parkinsonian scores Before L-dopa [3, 7]: 4.2 ± 0.4
Parkinsonian scores After L-dopa [3, 7]: 2.6 ± 0.4
Parkinsonian scores Before L-dopa [3, 8]: 3.4 ± 0.7
Parkinsonian scores After L-dopa [3, 8]: 2.2 ± 0.2
effect on parkinsonism [3, 9]: no effect
Attempts [4, 10]: 22.8 ± 3.2
Latency [4, 10]: 21.2 ± 2.8 s
Attempts [4, 11]: 18.0 ± 2.5
Latency [4, 11]: 18.3 ± 3.3 s
effect on cognitive ability [4, 9]: no effect
efficacy in the symptomatic treatment of AD [5]: signal for efficacy

CN1CCCC1c1cccnc1 (stereo not drawn) [Nicotine, nicotine, reference compound]
Parkinsonian scores Before L-dopa [3, 12]: 3.6 ± 0.4
Parkinsonian scores After L-dopa [3, 12]: 2.4 ± 0.4
Attempts [4, 12]: 23.8 ± 2.8
Latency [4, 12]: 19.2 ± 2.2 s
